Reference: ChEMBL document CHEMBL3779878, “Indomethacin based new triazolothiadiazine derivatives: Synthesis, evaluation of their anticancer effects on T98 human glioma cell line related to COX-2 inhibition and docking studies” (2016)
Activity calls are given as the source filed them. The rule behind the calls is not given here.

Experiments:
T98 [1] = experiment: Induction of apoptosis in human T98 cells assessed as late apoptotic cells at 100 uM after 24 hrs by Annexin-V-FITC/propidium iodide staining based flow cytometry analysis (reference value: 2.7 +/- 1.4 %); type: functional
[2] = Reduction in Cox-2 mRNA expression levels in human T98 cells by real-time PCR assay; type: functional, cell-based
T98 [3] = experiment: Induction of apoptosis in human T98 cells assessed as alive cells at 50 uM after 24 hrs by Annexin-V-FITC/propidium iodide staining based flow cytometry analysis (reference value: 95 +/- 5.6 %); type: functional
T98 [4] = experiment: Induction of apoptosis in human T98 cells assessed as early apoptotic cells at 50 uM after 24 hrs by Annexin-V-FITC/propidium iodide staining based flow cytometry analysis (reference value: 1.1 +/- 0.3 %); type: functional
T98 [5] = experiment: Induction of apoptosis in human T98 cells assessed as early apoptotic cells at 100 uM after 24 hrs by Annexin-V-FITC/propidium iodide staining based flow cytometry analysis (reference value: 1.1 +/- 0.3 %); type: functional
[6] = Antiproliferative activity against human T98 cells assessed as reduction in survival rate at 100 uM after 24 hrs by MTT assay relative to control; type: functional
T98 [7] = experiment: Effect on caspase 8 mRNA expression levels in human T98 cells at 50 to 100 uM by real-time PCR assay; type: functional, cell-based
[8] = Antiproliferative activity against human T98 cells assessed as reduction in survival rate at 50 uM after 24 hrs by MTT assay relative to control; type: functional
[9] = Induction of apoptosis in human T98 cells assessed as total death rate at 50 uM after 24 hrs by Annexin-V-FITC/propidium iodide staining based flow cytometry analysis (reference value: 3.8 %); type: functional
T98 [10] = experiment: Induction of apoptosis in human T98 cells assessed as alive cells at 100 uM after 24 hrs by Annexin-V-FITC/propidium iodide staining based flow cytometry analysis (reference value: 95 +/- 5.6 %); type: functional
T98 [11] = experiment: Induction of apoptosis in human T98 cells assessed as late apoptotic cells at 50 uM after 24 hrs by Annexin-V-FITC/propidium iodide staining based flow cytometry analysis (reference value: 2.7 +/- 1.4 %); type: functional
[12] = Induction of apoptosis in human T98 cells assessed as total death rate at 100 uM after 24 hrs by Annexin-V-FITC/propidium iodide staining based flow cytometry analysis (reference value: 3.8 %); type: functional
T98 [13] = experiment: Antiproliferative activity against human T98 cells assessed as reduction in survival rate at 1 to 100 uM after 24 hrs by MTT assay; type: functional, cell-based
T98 [14] = experiment: Effect on caspase 3 mRNA expression levels in human T98 cells at 50 to 100 uM by real-time PCR assay; type: functional, cell-based
T98 [15] = experiment: Effect on cytochrome-c mRNA expression levels in human T98 cells at 50 to 100 uM by real-time PCR assay; type: functional, cell-based
T98 [16] = experiment: Effect on caspase 9 mRNA expression levels in human T98 cells at 50 to 100 uM by real-time PCR assay; type: functional, cell-based

COc1ccc2c(c1)c(Cc1nnc3n1N=C(c1ccc(C)cc1)CS3)c(C)n2C(=O)c1ccc(Cl)cc1
Activity (T98 [1]): 47% | Activity [2]: Dose-dependent effect | Activity (T98 [3]): 39% | Activity (T98 [4]): 11% | Activity (T98 [5]): 12% | Activity [6]: 40% | Activity (T98 [7]): inactive | Activity [8]: 25% | Activity [9]: 49% | Activity (T98 [10]): 31% | Activity (T98 [11]): 38% | Activity [12]: 59% | Activity (T98 [13]): Active | Activity (T98 [14]): inactive | Activity (T98 [15]): inactive | Activity (T98 [16]): inactive
